Results taken from US10816552B2 (The Governing Council of the University of Toronto, priority 2014, dated 2020).

How the values were obtained:
Jurkat cells = test: Metabolic toxicity assay (WST-1) in Jurkat cells; assay type: cell-based; conditions: Jurkat cells, 24 hour incubation, WST-1
Procedure: FIGS. 7A, B and C show a) and b) the cell proliferation rate of HCT116 cells as a function of time in the presence of various concentrations of the exemplary compound, Telox-2 (confluency analysis); and c) the metabolic toxicity of the exemplary compound, Telox-2, in Jurkat cells as measured by reduction of WST-1. Cells were incubated with Telox-2 for 24 hours prior to a 30 minute exposure to WST-1.
A 96 well clear fluorometer plate was loaded with 200 μL of Jurkat cells at a culture density of 1×10^6 cells per mL. To each well was added an appropriate amount of a stock solution of Telox/Telox2 in sterile DMSO to reach a desired concentration of Telox/Telox2 (1-1000 micromole). The concentration of DMSO was 1% in all wells. Cells were allowed to incubate for 24 h at 37° C. under normal atmosphere, after which 20 μL of a commercially available solution of WST-1 in PBS (Roche Diagnostics, product #05015944001) was added to each well (gentle pipetting evenly distributed the reagent throughout the well). Cells were allowed to incubate for a further 0.5 h at 37° C. under normal atmosphere, followed by subsequent measurement of the absorbance of each well at 450 nm using a TECAN Safire 2 plate reader. Data was background corrected vs. wells that contained cell growth media (without cells), an appropriate concentration of Telox2, a final concentration of DMSO=1%, and WST-1. Background correction wells were incubated in the same manner as described for cell-positive wells.
To investigate the organotellurium compounds of study as potential probe moieties for MC, the metabolic toxicity of the compounds was evaluated. Organotellurium compounds are often described as toxic, with aryl telluroethers showing cellular toxicity below 100 μM across a range of cell lines under different assay conditions.^9-11,38,39 The toxicity of compounds 8-11 was investigated in a commonly used Jurkat cell line after a 24 hour incubation using the metabolic probe WST-1 (Roche Diagnostics, Laval, Quebec) as per manufacturer's instructions. As compounds 8, 9 and 10 are expected to show degradation over the time frame of the toxicity assay, based on the NMR stability studies, these experiments show the relative toxicity of the compounds and their resulting degradation products (Table 2). […] The LD50 values of the exemplary organotellurium compounds of the present application provide promise for their use as activity based MC probes since the general MC experiment can be achieved at concentrations of ˜100 μM.^5

[1] = 1H NMR stability of Telox-2 in D2O (0.01% dDMSO); assay type: physicochemical
Excerpt: To investigate the stability of Telox-2 compared to Telox ^1H NMR spectra of Telox-2 were collected over a period of 1 week under biologically-relevant conditions (0.01% dDMSO in D2O).

[2] = UV-Vis stability of Telox-2 in aqueous buffer; assay type: physicochemical; conditions: 200 μM, 0.01% DMSO in phosphate-buffered saline
Procedure: Concentration of Telox-2=200 μM (0.01% DMSO in phosphate-buffered saline). The small spectrum identifies the unique absorptions of the tellurophene and nitroimidazole functionalities.
An orthogonal stability assay using UV-Vis spectroscopy was performed to corroborate the NMR stability findings (FIG. 6). In this assay, UV-Vis spectra of Telox-2 were recorded at a fixed concentration in aqueous buffer over a period of 3 days. Loss of either heterocycle, tellurophene or nitroimidazole, as a result of degradation would be expected to cause a decrease in absorbance at 282 and/or 325 nm respectively.

[3] = test system: NADPH:cytochrome P450 oxidoreductase (POR); assay type: cell-based; conditions: mutant HCT116, 10 μM, 3 hours
Procedure: FIGS. 10A-C show a) the mass cytometry histograms of wild-type HCT116 cells incubated with 10 μM of the exemplary compound, Telox-2, for 3 hours in atmosphere containing either 21% O2, 1% O2, 0.2% O2, or <0.02% O2); b) the mass cytometry histograms of mutant HCT116 cells overexpressing POR incubated with 10 μM Telox-2 for 3 hours in atmosphere containing either 21% O2, 1% O2, 0.2% O2 or <0.02% O2; and c) the mass cytometry histograms of mutant HCT116 cells unable to express POR incubated with 10 μM Telox-2 for 3 hours in atmosphere containing either 21% O2, 1% O2, 0.2% O2, or <0.02% O2.
To confirm the reductive metabolism of Telox-2 it investigated using mutant HCT116 cell lines that either overexpressed NADPH:cytochrome P450 oxidoreductase (POR) or had this enzyme knocked out (FIG. 10 part b).

HCT116 cells = test: Competitive labelling with pimonidazole (mass cytometry); assay type: cell-based; conditions: HCT116, Telox-2 10 μM, near-anoxic
Procedure: Concentration Telox-2=10 μM. The absolute ^130Te signal was measured using mass cytometry.
HCT 116 cells (see sections i and ii) were incubated in media containing Telox or Telox2 (100 μM, added as a neat solution in sterile DMSO; final [DMSO]=0.1%) for 3 hours under atmosphere containing an appropriate concentration of O2. Following incubation, the media was removed, cells were washed with sterile PBS, and then separated from the incubation plate via trypsinization (37° C., 10 min) and gentle scraping. The cell suspension was pelleted and resuspended in PBS containing β-ME (1.0 mL, 100 mM). Cells were pelleted, resuspended in PBS (900 μL, no β-ME), and fixed with formaldehyde (100 μL, 37% solution) for 25 minutes. Following fixation, cells were pelleted, resuspended in PBS containing β-ME (1.0 mL, 100 mM), and pelleted once again. Cells were then resuspended in PBS ([…], no β-ME) and incubated with either the Ir-containing nucleic acid intercalator (hypoxic cells) or the Rh containing nucleic acid intercalator (normoxic cells) (10 μL, 100 μM solution in sterile PBS) for 20 minutes. Cells were then pelleted and resuspended in PBS (1.0 mL, no β-ME) twice. Cell pellets were then resuspended in PBS containing ^151/153EU beads (1/10 dilution of CyTOF® calibration beads, DVS Sciences, 1.0-2.5 mL depending on pellet size). […]

O=[N+]([O-])c1nccn1CCc1ccc[te]1 [Telox-2, 2-nitro-1-(2-(tellurophen-2-yl)ethyl)-1H-imidazole]
LD50 (metabolic toxicity) (Jurkat cells): ~270 µM | degradation by 1H NMR over 1 week ([1]; 0.01% dDMSO in D2O, 1 week, 200 μM): no observable degradation | aggregate or micelle formation in aqueous solution (1H NMR peak broadening) ([1]; high concentrations (2 mM)): does not form aggregates or micelles | change in absorbance at 282 and/or 325 nm over 3 days [2]: No change in absorbance | labelling in POR-knockout cell line compared to wild type [3]: nearly identical to that in the wild type | labelling in cell line overexpressing POR compared to wild type [3]: greatly enhanced labelling | labelling under competitive conditions with pimonidazole (HCT116 cells): reduced in a (pimonidazole) dose-dependent manner
